Measured values as given in US12492189B2, “Solid forms of an HIV capsid inhibitor” (Gilead Sciences, Inc., priority 2017, dated 2025).

What was measured:
HIV-IIIb = assay: Test A: Antiviral Assay in MT4 Cells; type: cell-based, HIV-1
Procedure: 1 mL Aliquots of MT4 cells were pre-infected for 3 hours at 37° C. with 25 μL of cell growth medium (mock-infected) or a fresh 1:250 dilution of an HIV-IIIb concentrated ABI stock (0.004 m.o.i.). Infected and uninfected cells were diluted in cell growth media and 35 μL (2000 cells) was added to each well of the assay plates.
Assay plates were then maintained in a humidified, 5% CO2 incubator at 37° C. After 5 days of incubation, 25 μL of 2× concentrated CellTiter-Glo™ Reagent (catalog #G7573, Promega Biosciences, Inc., Madison, WI) was added to each well of the assay plate. Cell lysis was carried out by incubating at room temperature for 10 minutes and then chemiluminescence was read using an Envision plate reader (PerkinElmer).

[1] = Pharmacokinetic profile after subcutaneous dosing of formulations in dogs (Formulation Examples A-D); type: in vivo; conditions: solution in 10% ethanol, 13% water, 6 mg/kg
Procedure: The suspension was administered to dogs subcutaneously at a dose of 6 mg/kg and the pharmacokinetic (PK) profile was determined.
The solution was administered to dogs subcutaneously at a dose of 6 mg/kg and the pharmacokinetic (PK) profile was determined.
Subjects were orally dosed with this formulation at 6 mg/kg. […] The solution was administered to dogs subcutaneously at a dose of 6 mg/kg and the pharmacokinetic (PK) profile was determined.

[2] = Atropisomer equilibrium and interconversion in solution; type: physicochemical
From the text: (§1) In solution, the two atropisomers coexist in the ratio of about 1:5 to 1:8 (Isomer A:Isomer B), depending on temperatures and pH.

Human Liver Hepatocytes = assay: Test D: Metabolic Stability in Cultured Human Liver Hepatocytes; type: in vitro ADME
Procedure: Test D. Metabolic Stability in Cultured Human Liver Hepatocytes
The final hepatocyte concentration was 1 million cells/mL. The hepatocyte/compound reaction mixture was dissolved in InVitroGRO™ KHB buffer (catalog #Z99074, BioreclamationIVT, Inc., Baltimore, MD) at pH 7.4. The incubations were performed in duplicate. A cell free control and a positive control were included in the incubations. The incubations were carried out with gentle shaking in a 37° C. incubator under a humid atmosphere of 95% air/5% CO2 (v/v). Aliquots (100 mL) were removed after 0, 1, 3, and 6 hours and added to 200 mL quenching solution that comprised 0.1% (v/v) TFA in 5% water/95% acetonitrile (v/v). The samples were placed on a shaker for 10 min, followed by centrifugation at 3000 g for 30 min. The samples of the supernatant were analyzed on a Dionex HPLC/PerkinElmer Flow Scintillation Analyzer as described below.
The column was a Phenomenex Synergi fusion RP (150×4.6 mm, 4 mm) maintained at 32 degrees Celsius. Mobile Phase A consisted of 0.1% (v/v) TFA in 99% water/1% acetonitrile (v/v). Mobile Phase B consisted of 0.1% (v/v) TFA in 5% water/95% acetonitrile (v/v). The flow rate was 1 mL/min using a sample injection volume of 100 mL.
Metabolic stability was determined by measuring the change in relative abundance of metabolites and parent over time and calculating from it the rate of disappearance of the parent compound. The stability data was utilized to calculate predicted human hepatic clearance values according to methods known in the art.

[3] = Test C: Pharmacokinetic analysis following intravenous administration to beagle dogs; type: in vivo
From the text: (§2) Pharmacokinetic Analysis Following Intravenous Administration to Sprague-Dawley Rats and Beagle Dogs and Cynomolgous Monkeys
All IV formulations were in solution.
(§3) Each rat IV dosing group consisted of 3 male SD rats. […] The animals were fasted overnight prior to dose administration and up to 4 hr after dosing. Each dog IV dosing group consisted of 3 male, naïve beagle dogs. At dosing, the animals weighed ˜10-12 kg. The animals were fasted overnight prior to dose administration and up to 2 hr after dosing.
(§4) For the IV infusion group, the test compound was administered by intravenous infusion over 30 minutes. The rate of infusion was adjusted according to the body weight of each animal to deliver a dose of 1 mg/kg at 2 mL/kg.
(§5) Serial venous blood samples (approximately 0.4 mL each for rat and 1.0 mL for dog) were taken at specified time points after dosing from each animal. The blood samples were collected into Vacutainer™ tubes (Becton-Disckinson Corp, New Jersey, USA) containing EDTA as the anti-coagulant and were immediately placed on wet ice pending centrifugation for plasma. Centrifugation began within 1 hour of collection. All samples were placed into 96-well tubes and maintained on dry ice prior to storage at approximately −70° C.
(§6) An LC/MS/MS method was used to measure the concentration of test compounds in plasma.
(§7) Non-compartmental pharmacokinetic analysis was performed on the plasma concentration-time data.

pKa of Compound 1 = type: physicochemical
From the text: as §1

[4] = Test C: Pharmacokinetic analysis following intravenous administration to Sprague-Dawley rats; type: in vivo
From the text: as §2
All IV formulations were in solution.
as §3, §4, §5, §6, §7

Row | SMILES | EC50 (HIV-IIIb; Human immunodeficiency virus 1, IIIB, MT4, 120 h) [nM] | plasma concentration of Compound 1 at day 28 ([1]; 77% PEG 200 (200 mg/mL) with 1.2 molar equivalent NaOH (in situ sodium salt), FIG. 29) | plasma concentration of Compound 1 at day 28 ([1]; 77% glycofurol (200 mg/mL) with 1.2 molar equivalent NaOH (in situ sodium salt), FIG. 30) | half-life ([2]; in solution at 37° C., read-out: t½ of re-equilibration of separated atropisomers) [h] | rotational energy barrier ([2]; rotation along one of the C—C bonds (atropisomers)) | Predicted Human Hepatic Clearance (Human Liver Hepatocytes; calculated from stability in pooled cryopreserved human hepatocytes, […], up to 6 hours) [mL/min/kg] | times more stable in human hepatocytes (lower predicted hepatic clearance) (Human Liver Hepatocytes; relative to compound A) | times more stable in human hepatocytes (lower predicted hepatic clearance) (Human Liver Hepatocytes; relative to compound B) | times longer in vivo terminal half-life in dog ([3]; relative to compound A) | times lower in vivo clearance in dog ([3]; relative to compound A) | times longer in vivo terminal half-life in dog ([3]; relative to compound B) | times lower in vivo clearance in dog ([3]; relative to compound B) | pKa (pKa of Compound 1; weak acid, at sulfonamide) | pKa (pKa of Compound 1; weak base, at pyridine) | times more potent in HIV antiviral assay (HIV-IIIb; relative to compound A) | times more potent in HIV antiviral assay (HIV-IIIb; relative to compound B) | times longer in vivo terminal half-life in rat ([4]; relative to compound A) | times lower in vivo clearance in rat ([4]; relative to compound A) | times longer in vivo terminal half-life in rat ([4]; relative to compound B) | times lower in vivo clearance in rat ([4]; relative to compound B)
1 | Cn1nc(NS(C)(=O)=O)c2c(Cl)ccc(-c3ccc(C#CC(C)(C)O)nc3[C@H](Cc3cc(F)cc(F)c3)NC(=O)Cn3nc(C(F)(F)F)c4c3C(F)(F)[C@@H]3C[C@H]43)c21 [Compound B, reference compound] | 2.99 | – | – | – | – | – | – | – | – | – | – | – | – | – | – | – | – | – | – | –
2 | CC(C)(C#Cc1ccc(-c2ccc(Cl)c3c(NS(C)(=O)=O)nn(CC(F)(F)F)c23)c([C@H](Cc2cc(F)cc(F)c2)NC(=O)Cn2nc(C(F)(F)F)c3c2C(F)(F)[C@@H]2C[C@H]32)n1)S(C)(=O)=O [Compound 1, N—((S)-1-(3-(4-Chloro-3-(methylsulfonamido)-1-(2,2,2-trifluoroethyl)-1H-indazol-7-yl)-6-(3-methyl-3-(methylsulfonyl)but-1-yn-1-yl)pyridin-2-yl)-2-(3,5-difluorophenyl)ethyl)-2-((3bS,4aR)-5,5-difluoro-3-(trifluoromethyl)-3b,4,4a,5-tetrahydro-1H-cyclopropa[3,4]cyclopenta[1,2-c]pyrazol-1-yl)acetamide] | – | measurable | measurable | 1 to 2 | about 24 kcal/mol | 0.17 | about 9 times | about 4 times | about 5 times | about 3 times | about 4 times | about 4 times | 6.7 | < 1 | about 9 times | about 16 times | about 14 times | about 10 times | about 9 times | about 8.6 times
